Columns and labels:
[1] = tasting different fractions of the Example 1 product (LC-MS, 1H NMR identification); details: fractions of the lactic acid/GMP reaction product of Example 1
Experimental: 1000 g of lactic acid (about 90% pure), 50 g of NaCl and 250 g of GMP were thoroughly mixed. The mixture was heated and stirred at 100° C. for 4 hour. The mixture was cooled to 60° C. and 4000 g of ethyl acetate was added. The mixture was stirred for 1 h. Next, the mixture was filtered over a glass filter and the filter residue was washed with 1000 g ethyl acetate. Thus, 362 g of an almost white powder was obtained. The main taste components of the obtained product were identified by LC-MS and tasting different fractions.

[2] = samples tasted by a professional panel
Experimental: The following samples were prepared:
A: 0.6% NaCl and 0.03% MSG
B: 0.01% Fraction 2 as obtained in example 1
C: 0.6% NaCl and 0.03% MSG and 0.5 ppt Fraction B as obtained in example 1
D: 0.6% NaCl and 0.03% MSG and 0.4 ppb Fraction A as obtained in example 1
The samples were tasted by a professional panel and described as follows: […]

| Substance | taste of the fractions containing the substance [1] | taste description by professional panel ([2]; sample B: 0.01% of the fraction alone) | taste description by professional panel ([2]; sample C: 0.5 ppt of the fraction with 0.6% NaCl and 0.03% MSG (base alone: salty, umami)) | taste description by professional panel ([2]; sample D: 0.4 ppb of the fraction with 0.6% NaCl and 0.03% MSG (base alone: salty, umami)) |
| --- | --- | --- | --- | --- |
| N-Lactoyl-GMP [Fraction B] | “long-lasting” and “kokumi” | mild acidic, late onset umami, kokumi, full, sweet, very lingering | salty, umami, full, mouthfeel, kokumi, salivating and very lingering | – |
| O-Lactoyl-GMP [Fraction A] | “long-lasting” and “kokumi” | – | – | salty, umami, full, after taste and lingering |
